Experimental data taken from patent publication US20120135013A1, “CD45 and Methods and Compounds Related Thereto” (priority 2007, published 2012).

Key:
Cdc25B [1] = molecular target: T1, Cdc25B (Homo sapiens, UniProt P30305); settings: Lazo et al. (2002); cited from earlier work
T1 sequence (P30305 1-580): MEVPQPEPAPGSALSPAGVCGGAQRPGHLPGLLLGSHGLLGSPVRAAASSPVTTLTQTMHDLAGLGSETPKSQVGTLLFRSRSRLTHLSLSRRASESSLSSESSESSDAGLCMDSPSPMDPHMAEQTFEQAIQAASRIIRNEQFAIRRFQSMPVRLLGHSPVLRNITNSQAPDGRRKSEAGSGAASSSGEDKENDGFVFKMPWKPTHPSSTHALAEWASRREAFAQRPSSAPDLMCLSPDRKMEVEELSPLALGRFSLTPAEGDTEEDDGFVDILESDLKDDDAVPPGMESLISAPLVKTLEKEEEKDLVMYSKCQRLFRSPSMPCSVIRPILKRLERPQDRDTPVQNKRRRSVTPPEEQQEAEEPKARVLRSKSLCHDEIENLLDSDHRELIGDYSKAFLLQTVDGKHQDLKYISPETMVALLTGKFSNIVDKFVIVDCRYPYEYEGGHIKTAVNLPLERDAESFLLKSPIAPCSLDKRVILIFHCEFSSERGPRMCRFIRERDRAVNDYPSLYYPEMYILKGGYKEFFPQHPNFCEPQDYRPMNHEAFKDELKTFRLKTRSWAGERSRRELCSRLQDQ

[2] = tested on: Sterne B. anthracis spores; assay type: cell-based; settings: 10 μM
Cdc25B [3] = molecular target: T1, Cdc25B; assay: biochemical; settings: read-out: % Inhibition (cdc25B)
LF = LF (Bacillus anthracis, UniProt P15917); assay type: biochemical
Sequence of LF (P15917 34-809 limits assumed): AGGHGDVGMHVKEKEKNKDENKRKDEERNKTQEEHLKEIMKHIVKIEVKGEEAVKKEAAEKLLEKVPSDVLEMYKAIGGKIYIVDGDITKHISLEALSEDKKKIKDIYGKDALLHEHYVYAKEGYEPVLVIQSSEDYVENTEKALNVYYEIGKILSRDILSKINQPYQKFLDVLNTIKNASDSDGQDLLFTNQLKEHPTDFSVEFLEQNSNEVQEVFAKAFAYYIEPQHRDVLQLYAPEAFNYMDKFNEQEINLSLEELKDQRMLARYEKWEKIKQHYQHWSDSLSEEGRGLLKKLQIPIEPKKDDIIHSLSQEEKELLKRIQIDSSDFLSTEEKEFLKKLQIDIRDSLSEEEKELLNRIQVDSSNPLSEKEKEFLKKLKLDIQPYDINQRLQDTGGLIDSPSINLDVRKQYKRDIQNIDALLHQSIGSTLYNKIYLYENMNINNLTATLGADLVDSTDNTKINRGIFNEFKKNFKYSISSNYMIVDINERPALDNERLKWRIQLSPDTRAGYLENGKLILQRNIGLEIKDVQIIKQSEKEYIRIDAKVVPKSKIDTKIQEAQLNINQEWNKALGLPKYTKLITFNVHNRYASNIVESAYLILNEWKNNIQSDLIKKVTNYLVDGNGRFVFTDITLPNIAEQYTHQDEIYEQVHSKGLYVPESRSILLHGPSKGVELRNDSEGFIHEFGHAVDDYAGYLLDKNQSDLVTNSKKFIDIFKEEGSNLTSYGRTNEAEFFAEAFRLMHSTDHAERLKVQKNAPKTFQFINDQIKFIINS

CD45 [4] = molecular target: T2, CD45 (Homo sapiens, UniProt P08575); assay: biochemical; settings: read-out: inhibition of the phosphatase activity of CD45
T2 construct: purchased Upstate (Lake Placid, N.Y.)
T2 sequence (P08575 26-1306): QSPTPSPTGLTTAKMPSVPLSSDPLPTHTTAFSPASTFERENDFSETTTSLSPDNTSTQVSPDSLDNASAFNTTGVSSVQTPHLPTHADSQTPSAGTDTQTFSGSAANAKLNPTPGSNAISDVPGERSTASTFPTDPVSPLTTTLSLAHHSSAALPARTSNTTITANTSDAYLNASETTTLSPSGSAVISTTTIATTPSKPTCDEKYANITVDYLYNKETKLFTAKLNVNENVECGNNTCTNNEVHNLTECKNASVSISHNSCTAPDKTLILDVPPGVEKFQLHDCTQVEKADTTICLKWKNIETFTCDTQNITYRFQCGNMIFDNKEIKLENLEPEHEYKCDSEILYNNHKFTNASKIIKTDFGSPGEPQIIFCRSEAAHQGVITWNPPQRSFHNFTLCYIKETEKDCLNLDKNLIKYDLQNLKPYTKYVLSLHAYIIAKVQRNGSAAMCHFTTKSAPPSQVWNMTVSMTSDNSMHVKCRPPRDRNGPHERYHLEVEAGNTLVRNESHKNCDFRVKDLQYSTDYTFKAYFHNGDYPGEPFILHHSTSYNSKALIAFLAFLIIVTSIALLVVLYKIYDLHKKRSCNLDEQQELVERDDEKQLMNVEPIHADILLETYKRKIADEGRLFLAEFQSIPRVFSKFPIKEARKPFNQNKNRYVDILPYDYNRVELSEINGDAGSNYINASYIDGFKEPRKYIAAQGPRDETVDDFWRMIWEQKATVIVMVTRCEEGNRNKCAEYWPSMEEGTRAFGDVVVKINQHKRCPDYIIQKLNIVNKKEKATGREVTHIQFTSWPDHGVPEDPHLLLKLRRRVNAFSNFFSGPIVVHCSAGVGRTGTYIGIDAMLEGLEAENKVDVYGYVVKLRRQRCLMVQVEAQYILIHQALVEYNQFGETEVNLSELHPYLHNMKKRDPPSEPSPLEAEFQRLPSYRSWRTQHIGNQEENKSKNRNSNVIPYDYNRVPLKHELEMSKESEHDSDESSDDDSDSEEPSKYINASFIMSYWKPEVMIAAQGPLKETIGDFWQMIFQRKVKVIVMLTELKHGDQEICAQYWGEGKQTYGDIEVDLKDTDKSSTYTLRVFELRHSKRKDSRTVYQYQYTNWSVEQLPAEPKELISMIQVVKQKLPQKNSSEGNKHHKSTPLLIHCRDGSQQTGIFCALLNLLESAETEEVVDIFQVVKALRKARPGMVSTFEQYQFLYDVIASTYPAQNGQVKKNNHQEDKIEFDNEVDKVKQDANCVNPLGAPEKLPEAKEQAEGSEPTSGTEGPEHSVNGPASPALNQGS

proteasome = assay type: biochemical, mouse
Ames B. anthracis spores = settings: in vivo
CD45 [5] = assay: CD45 phosphatase activity after immunoprecipitation from cell lysates; assay type: cell-based, mouse; settings: 8 μM, 72 hours
MEK = assay type: cell-based, mouse
CD45 [6] = assay: immunoblot of CD45 protein levels; assay type: cell-based, mouse; settings: 72 hours, vs untreated or scrambled PMO

Compound	inhibition of Cdc25, previously reported (Cdc25B [1])	anti-microbial activity (growth of the bacteria) [2]	inhibition at 10 µM (Cdc25B [3])	inhibition of LF enzymatic activity (cleavage of peptide substrate) (LF)	inhibition of proteasome activity (proteasome)	also measured
O=C1C(SCCO)=C(SCCO)C(=O)c2ccccc21 [NSC 95397]	previously reported to inhibit Cdc25	do not inhibit the growth of the bacteria	83%	None of the compounds were observed to inhibit	neither NSC 95397 nor NSC 270012 inhibited proteasome activity	inhibition at 10 µM (CD45 [4]): ~94%
Cc1ccc2c(c1C)-c1c(ccc(C)c1C)C(=O)C2=O [NSC 135880]	previously reported to inhibit Cdc25		99%	None of the compounds were observed to inhibit		
O=C1C=C(SCCO)C(=O)c2ccccc21 [NSC 148596]			67%	None of the compounds were observed to inhibit		
NC(=O)CCSC1=CC(=O)c2ccccc2C1=O [NSC 270011]			25%	None of the compounds were observed to inhibit		
NC(=O)CCCSC1=CC(=O)c2ccccc2C1=O [NSC 270012]		do not inhibit the growth of the bacteria	72%	None of the compounds were observed to inhibit	neither NSC 95397 nor NSC 270012 inhibited proteasome activity	
CD45 PMO (CCACAAACCCATGGTCATATC; all phosphorodiamidate morpholino (PMO))						antibody titers in surviving mice (Ames B. anthracis spores): developed protective antigen specific and lethal toxin neutralizing antibody titers; protection on re-challenge with Ames B. anthracis spores (Ames B. anthracis spores): completely protected; survival (Ames B. anthracis spores; 100 mg/kg/day): greatly increased; CD45 phosphatase activity following immunoprecipitation (CD45 [5]): concomitant reduction in CD45 phosphatase activity; MEK cleavage (MEK): MEK cleavage was not prevented; CD45 protein levels by immunoblot (CD45 [6]): dose dependent reduction
